Measurements reported in patent US20040171613A1, “Therapeutic agent for non-immediate type allergic diseases” (JAPAN TOBACCO INC., priority 2001, published 2004).
Read-outs that look alike come from different tables or passages of the source.

Experiments:
mouse ear = test: ear swelling induced by application of CB2 agonist or arachidonic acid; type: in vivo
Method: Therefore, 2-arachidonoylglycerol ether (2-AG-E), the stable form of an endogenous ligand candidate 2-arachidonoylglycerol, and a specific CB2 agonist HU-308 were examined whether they directly induce ear swelling and compared to the ear swelling induced by arachidonic acid (AA).
Synthetically produced 2-AG-E and HU-308 were prepared with acetone to 1 or 10% (w/v) and 10% (w/v), respectively, and AA (Sigma) was prepared with acetone to 1.25% (w/v), on needed basis. 10 μL each of these substances was applied on each side of the left ear.

CB2 [1] = target: T1, CB2 (Homo sapiens, UniProt P34972); test: cAMP production in forskolin-stimulated hCB2-expressing CHO cells; type: cell-based; parameters: expressed in transfected cells; host or cells: CHO cells; conditions: for remaining activity at 0.1 µM: CHO, Forskolin (5 μM) + compound 0.1 μM, read-out: Amount of cAMP production compared to control (ratio (%))
Target sequence in this assay (P34972 whole entry): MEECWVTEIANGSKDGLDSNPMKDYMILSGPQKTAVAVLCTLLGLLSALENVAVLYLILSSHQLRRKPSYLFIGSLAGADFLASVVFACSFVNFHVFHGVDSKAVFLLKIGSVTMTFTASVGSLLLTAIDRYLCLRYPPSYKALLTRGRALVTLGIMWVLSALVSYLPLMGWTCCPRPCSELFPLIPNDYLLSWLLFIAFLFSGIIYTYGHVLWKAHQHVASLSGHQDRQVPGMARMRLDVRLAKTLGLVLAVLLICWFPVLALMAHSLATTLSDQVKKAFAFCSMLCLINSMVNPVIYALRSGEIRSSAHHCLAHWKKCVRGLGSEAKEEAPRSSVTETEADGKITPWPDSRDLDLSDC

[2] = tested on: WBB6F1-+/+ and WBB6F1-W/Wv mice; test: 2-AG-E-induced ear swelling in mast cell-deficient mice; type: in vivo, mouse; conditions: topical 2-AG-E 100 mg/mL
Method: The degree of allergic symptoms was examined in mice deficient (partially deficient) of mast cells, which cells are considered to largely contribute to allergic reactions.
Female mice of WBB6F1-+/+ (normal mouse) strain and WBB6F1-W/W^v (mast cell-deficient mouse) strain were purchased from Japan SLC, Inc. and used as experimental animals.
10 μL 2-AG-E (100 mg/mL acetone) was applied on each side of the left ears of the mice on the first day of experiment.
(§1) The swelling of the ear was measured over time before and after the application of 2-AG-E using a dial thickness gauge. The difference between the values measured before and after the antigen application was defined as the degree of ear swelling. Then, AUC was determined from the changes in the degree of ear swelling with the time course and given as mean ± standard error (S.E.). Student's t-test was used in the statistical treatment. A significance level less than 5% was assumed to be significant.

[3] = tested on: wild-type and CB2-deficient mice; test: 2-AG-E-induced ear swelling in CB2-deficient mice; type: in vivo, mouse
Method: As described under the item of “7. IgE-dependent ear swelling in CB2-deficient mice”, female CB2-KO mice and female WT mice were used as experimental animals.
10 μL of 2-AG-E (100 mg/mL acetone) was applied on each side of the left ears of the mice on the first day of experiment.
as §1, with “AUC (area under the curve: the degree of ear swelling ×time)” for “AUC”, “changes of” for “changes in”, “time course,” for “time course”

[4] = tested on: IgE-dependent allergic dermatitis
Method: (§2) Using a triphase dermatitis model that can be induced by antigen in mouse passively sensitizationed with IgE, the actions of CB2 inverse agonist and CB2 agonist were examined.
(§3) *Animal: 8 to 10 weeks-old Female BALB/c mouse (Japan SLC Inc.) was used.
(§4) Preparation of solvent: MC was dissolved in distilled water to prepare an aqueous 0.5% MC solution.
(§5) Anti-DNP IgE (antibody against DNP; Yamasa Corp.) was prepared to 15 μg/mL with physiological saline. 0.2 mL of the resulting solution was given through the caudal vein to the mouse.
(§6) Antigen preparation: 0.15% (w/v) of DNFB (2,4-dinitrofluorobenzene) was prepared in a mixed solution of acetone and olive oil (3:1, v/v) on needed basis.
(§7) Antigen application: 25 μl of the antigen solution was applied on each side of both of the ears 24 hours after the administration of the anti-DNP IgE.
(§8) From the next day of the antigen application to day 8 after the antigen application, 10 mL/kg test compound was orally administered once a day 9 times in total. On the day of antigen application, the test compound was administered one hour before the antigen application and the test compound was administered one hour before the measurement of the thickness of the ear on day 8 after the antigen application.
(§9) Before and 8 days after the antigen application, the thickness of the ear was measured with a dial thickness gauge (Mitutoyo Corp.). The difference between the value measured before the antigen application and at each time point was used as an index of swelling.
(§10) After the measurement of ear swelling, spleen and thymus were harvested to weigh their wet weights.

[5] = tested on: IgE-dependent allergic dermatitis; conditions: mouse, in vivo, po
Method: as §2, §3, §4, §5, §6, §7, §8, §9, §10

CB2 [6] = target: T1, CB2; parameters: host or cells: CHO cells expressing CB2; conditions: CB2 expressing CHO cells; non-patent reference 3; cited from earlier work
Target sequence in this assay (P34972 whole entry, species assumed): as the sequence (P34972 whole entry) above

[7] = tested on: spontaneous scratching reaction; test: spontaneous scratching reaction of NC mouse; type: in vivo; conditions: NC/Jic mice; oral once a day for 3 weeks; vs solvent control
Text: Currently, NC mouse is used as an animal model of atopic dermatitis. No dermatitis or scratching action is observed when the mouse is kept in an environment under the control of atmospheric microorganisms (in SPF environment). However, when the mouse is kept in a conventional environment, scratching action together with the onset of dermatitis can be observed from about week 8 and the symptom progresses into chronic symptom (J. Dermatol. Sci., 25, 20-28, 2001).
Preparation of solvent: MC was dissolved in tap water to prepare an aqueous 0.5% (w/v) MC solution.
As positive controls, betamethasone valerate (Sigma) and tacrolimus hydrate (extracted from Prograf (Fujisawa Pharmaceutical Co., Ltd.)) were similarly prepared to 1 mg/mL. Betamethasone valerate is one of the adrenocorticosteroids that is considered to be effective for the treatment of atopic dermatitis. Tacrolimus hydrate is a therapeutic agent of atopic dermatitis which is known as an immunosuppressor as described above.
The mice (A) were taken away from the cage and the NC/Jic mice were used at the age of 16 weeks.
Breeding conditions: The mice were fed with solid feed CA-1 (CLEA JAPAN INC.) ad libitum and tap water as drinking water ad libitum, and kept at a temperature of 22±2° C. and a humidity of 55±10% under lighting from 8:00 a.m. to 20:00 p.m.
From 10 days before the start of the experiment, the number of scratching behavior with hind legs of the mice was visually counted (for 20 minutes; once daily) over 2 days or 3 days. Among the plural mice counted, mice with 50 or more average scratching movements per day were selected for use.
The behavior of the mice was filmed under unattended environment with a video camera to count the scratching motion with hind legs for one hour. […] This series of scratching motions was counted as one scratching movement, and all such scratching movements were counted irrespective of scratched sites. The measurement was done on the starting day of administration, and one day, 3, 6, 10, 13, 17 and 20 days after the start of administration. […]

[8] = tested on: DNFB-induced allergic dermatitis; test: murine DNFB-induced allergic dermatitis model; type: in vivo, mouse; conditions: 24 hours after the fifth antigen application; oral dosing
Method: The model is produced by repeating antigen sensitization and induction in mouse to induce contact dermatitis that involves increase of IgE antibody titer, i.e., inflammation similar to atopic dermatitis (J. Allergy Clin. Immunol., 100 (6Pt2), 39-44, December 1997).
Furthermore, by dilution, 0.1 mg/mL and 0.01 mg/mL suspensions were prepared. In addition, as positive controls, 0.5 mg/mL, 0.2 mg/mL and 0.1 mg/mL solutions of prednisolone (Sigma) were similarly prepared.
During the period from the next day of the third antigen application to the next day of the fifth antigen application, 10 mL/kg of the above-described test compound was administered once a day 15 times in total.
The difference of thickness was used as an index of swelling. FIGS. 1 and 2 show the results of the measurement at the fourth and fifth antigen applications, together with the results of the positive controls.
24 hours after the fifth antigen application, the spleen was harvested from the mouse exsanguinated under anesthesia with ether. The wet weight of the spleen was measured.

antigen-induced asthma = test: antigen-induced immediate type asthma, late-type asthma and airway hypersensitivity in guinea pigs; type: in vivo, guinea pig; conditions: oral, compound A 10, 30, 100 mg/kg, positive controls 30 mg/kg
Method: The test compound was further diluted to 20, 6 and 2 mg/mL on needed basis. As positive controls, 6 mg/mL pranlukast hydrate (extracted from Onon™ (Ono Pharmaceutical Co., Ltd.)) and 6 mg/mL prednisolone (Sigma) were similarly prepared.
Sensitization: Using an ultrasonic nebulizer (NE-U12; OMRON), a 6-weeks old male Hartley guinea pig (Kudo, Co., Ltd.) was continuously inhaled with 1% OVA (ovalbumin; Sigma)-containing physiological saline for 10 minutes per day for 8 consecutive days.
Antigen challenge: One week after the last sensitization, 2% OVA was similarly inhaled for 5 minutes. 24 hours before and one hour after the OVA challenge, metyrapone-containing physiological saline (Aldrich, 10 mg/mL) was administered intravenously and 30 minutes before the OVA induction, pyrilamine-containing physiological saline (Sigma, 10 mg/kg) was administered intraperitoneally.
During the 8 days of sensitization, the test compound was given one hour before the sensitization. On the day of the antigen challenge, the test compound was given one hour before the challenge. As solvent controls, the vehicle was similarly administered in accordance with OVA induction and physiological saline induction.
As positive controls, pranlukast hydrate was administered one hour before the challenge, while prednisolone was administered 16 hours and 2 hours before the challenge. The animals were fasted 16 to 18 hours before the oral administration.
Using total respiratory function analysis system (Pulmos-I, M.I.P.S. Company), the pre value was measured. Subsequently, specific airway resistance (hereinafter referred to as sRaw) per 100 breathes was measured one minute and 2, 4, 5, 6, 7 and 8 hours after the OVA challenge, and further once between 22 to 26 hours after the challenge, respectively. The average was used as sRaw at each measured time point. The increment ratio of sRaw was calculated by the following formula.
Increment ratio of sRaw (%)=[(sRaw at each measured time point −sRaw before the challenge)/(sRaw before the challenge)]×100
Twenty-two to 26 hours after the antigen challenge, each of 0.0625, 0.125, 0.25, 0.5, 1 and 2 mg/mL solutions of physiological saline and acetylcholine (hereinafter referred to as ACh) were sequentially inhaled for one minute, until the sRaw was 2-fold or more to the baseline sRaw (sRaw after inhalation of physiological saline). Based on the ACh concentration and the concentration-resistance curve of sRaw, the ACh concentration required for the sRaw to achieve 100% increase from the baseline sRaw, i.e., PC100ACh was determined.

[9] = 8 days after antigen application, oral dosing

Compound: CCCCC/C=C\C/C=C\C/C=C\C/C=C\CCCC(=O)O [AA, arachidonic acid]
- time after which swelling disappeared (mouse ear; topical AA 1.25% (w/v)): 2 days
- time of peak ear swelling after the application (mouse ear; topical application on ear): one
- ear swelling induced by application on the ear (mouse ear; topical in acetone, 2-AG-E 1 or 10%, HU-308 10%, AA 1.25% (w/v)): swelling that reached a peak one hour after the application

Compound: CCCCCOc1c(OC)ccc2cc(C(=O)NCCN3CCOCC3)c(=O)[nH]c12 [B]
- remaining activity at 0.1 µM (CB2 [1]): 430%

Compound: CCCCOc1c(OC)ccc2cc(C(=O)NCCc3ccc(F)cc3)c(=O)[nH]c12 [C]
- remaining activity at 0.1 µM (CB2 [1]): 212%

Compound: CCCCC/C=C\C/C=C\C/C=C\C/C=C\CCCC(=O)OC(CO)CO [Compound 2-AG, 2-arachidonoylglycerol]
- forskolin-stimulated cAMP production (CB2 [1]; hCB2-expressing CHO cells, statement in definitions): suppress the forskolin-stimulated cAMP production

Compound: CCCCC/C=C\C/C=C\C/C=C\C/C=C\CCCCOC(CO)CO [Compound 2-AG-E, 2-arachidonoylglycerol ether]
- 2-AG-E-induced dermatitis, mast cell-deficient (WBB6F1-W/Wv) mice [2]: developed dermatitis
- 2-AG-E-induced dermatitis, wild-type (WBB6F1-+/+) mice ([2]; vs mast cell-deficient mice): more severe dermatitis
- ear swelling induced by application on the ear (mouse ear; mouse, in vivo): concentration-dependent ear swelling
- time of peak ear swelling after the application (mouse ear; mouse, in vivo): 1 to 2 h
- 2-AG-E-induced dermatitis, CB2-deficient mice, very late phase ([3]; CB2-KO): no significant inflammation was observed
- 2-AG-E-induced dermatitis, CB2-deficient mice, early phase ([3]; CB2-KO, topical 2-AG-E 100 mg/mL): developed dermatitis in the early phase
- 2-AG-E-induced dermatitis, CB2-deficient mice, late phase ([3]; CB2-KO, vs wild-type): inflammation was milder in the late phase
- 2-AG-E-induced dermatitis (ear swelling), wild-type mice ([3]; wild-type C57BL/6 J, topical 2-AG-E 100 mg/mL): developed dermatitis in the very late phase in addition to the early phase and late phase
- forskolin-stimulated cAMP production (CB2 [1]): suppress the forskolin-stimulated cAMP production
- functional character at CB2 (inverse agonist / agonist) (CB2 [1]): agonists

Compound: CCCCCOc1c(OC)ccc2cc(C(=O)NCCc3ccncc3)c(=O)n(C)c12 [F]
- remaining activity at 0.1 µM (CB2 [1]): 218%

Compound: CCCCCCC(C)(C)c1cc(OC)c([C@@H]2C=C(CO)[C@@H]3C[C@H]2C3(C)C)c(OC)c1 [HU-308]
- wet weight of the spleen [4, 9]: Significant decrease
- ear swelling, very late phase ([4]; 8 days after application, oral once a day, compound A 0.1, 1, 10 mg/kg, SR144528 0.1 mg/kg or higher, HU-308 10 and 50 mg/kg): no pharmacological effect was observed

Compound: CCCCCOc1c(OC)ccc2c1CC(=O)N(CCCN1CCOCC1)C2=O [I]
- remaining activity at 0.1 µM (CB2 [1]): 125%

Compound: Cc1ccc(Cn2nc(C(=O)N[C@H]3C4(C)CCC(C4)C3(C)C)cc2-c2ccc(Cl)c(C)c2)cc1 (some centres unmarked) [SR144528]
- wet weight of the spleen [5]: no apparent changes
- wet weight of the thymus [5]: no apparent changes
- forskolin-stimulated cAMP production (CB2 [6]): elevate the production of cyclic adenosine-phosphate (cAMP)
- ear swelling, very late phase ([4]; mouse, in vivo): significant effect

Compound: CCCCC(=O)O[C@]1(C(=O)CO)[C@@H](C)C[C@H]2[C@@H]3CCC4=CC(=O)C=C[C@]4(C)[C@@]3(F)[C@@H](O)C[C@@]21C [betamethasone valerate]
- number of scratching movements [7]: suppressed the number of scratching movements

Compound: C[C@]12C=CC(=O)C=C1CC[C@@H]1[C@@H]2[C@@H](O)C[C@@]2(C)[C@H]1CC[C@]2(O)C(=O)CO [prednisolone]
- spleen wet weight [8]: decrease of spleen weight
- airway hypersensitivity (PC100ACh) (antigen-induced asthma; 22 to 26 hours after antigen challenge): suppressed
- immediate type asthma response (sRaw immediately after antigen challenge) (antigen-induced asthma): suppressed
- late asthmatic response (sRaw over 4 to 8 hours after antigen challenge) (antigen-induced asthma): suppressed
- wet weight of the spleen [4, 9]: significant suppression
- wet weight of the thymus [4, 9]: significant suppression

Compound: C=CC[C@@H]1/C=C(\C)C[C@H](C)C[C@H](OC)[C@H]2O[C@@](O)(C(=O)C(=O)N3CCCC[C@H]3C(=O)O[C@H](/C(C)=C/[C@@H]3CC[C@@H](O)[C@H](OC)C3)[C@H](C)[C@@H](O)CC1=O)[C@H](C)C[C@@H]2OC [tacrolimus hydrate]
- number of scratching movements [7]: suppressed the number of scratching movements
